From patent US7176313B2, “Anti acid-fast bacterial agent containing pyridonecarboxylic acids as active ingredient” (Daiichi Pharmaceutical Co., Ltd., priority 2000, dated 2007)
In brackets after ≈: the same amount, converted by molar mass. Like-named read-outs stand apart in the source and are kept apart here.

Key:
M. avium = experiment: Antibacterial activity (MIC) against M. avium; type: cell-based, Mycobacterium avium; settings: Mycobacterium avium, read-out: MIC
Method: Antibacterial activity of the compounds of the invention was measured in accordance with the method described in the literature of Antimicrob. […] In the tables, “OFLX” is an abbreviation of “OFLOXAIN”.

M. intracellulare = experiment: Antibacterial activity (MIC) against M. intracellulare; type: cell-based, Mycobacterium intracellulare
Method: Antibacterial activity of the compounds of the invention was measured in accordance with the method described in the literature of Antimicrob. Agents and Chemother., 38, 2877 (1994), and the results are shown in Tables 3 to 8 in terms of MIC (μg/ml). In the tables, “OFLX” is an abbreviation of “OFLOXAIN”.

[1] = Mouse acute toxicity test; type: in vivo, Male Slc:ddY mice; settings: intravenous; for survival of mice after administration / acute toxicity: text summary of Table 9; for Mortality (dead/ test) / acute toxicity: mice
Method: Mouse Acute Toxicity Test
Male Slc:ddY mice at age of 5-weeks were used as test animals. For dissolving the compounds, 0.1 mol/l NaOH (in saline) was used. Mice were administered intravenously at a rate of 0.1 ml/30 seconds at a dosing volume of 10 ml/kg.

[2] = test system: Mycobacterium tuberculosis (RFP sensitive); experiment: Antibacterial activity (MIC) against Mycobacterium tuberculosis (RFP sensitive); type: cell-based; settings: Mycobacterium tuberculosis, read-out: MIC
reticulocytes (RC) = experiment: Peripheral blood micronucleus test; type: in vivo, Male Slc:ddY mice; settings: mice, intravenous; for MNRC (%) mean ±S.E. 24 hours: 24 hours after administration; for MNRC (%) mean ±S.E. 48 hours: 48 hours after administration; for micronucleus induction: (untreated control: 0.12±0.08)
Method: Peripheral Blood Micronucleus Test
Used animals and administration method are similar to those in the mouse acute toxicity test. Samples were prepared by collecting 5 μl each of blood sample from the tail vein at 24 and 48 hours after the administration, dropping the blood on a slide at which 0.1% acridine orange solution had been applied in advance, sealing the slide with a cover glass immediately, and allowing it to stand in a refrigerator for 24 hours.

In the case of `COc1c(N2CCN(C)CC2)c(F)cc2c(=O)c(C(=O)O)cn([C@@H]3C[C@@H]3F)c12` [Compd. 15, 6-Fluoro-1-[2-(S)-fluoro-1-(R)-cyclopropyl]-1,4-dihydro-8-methoxy-7-(4-methylpiperazin-1-yl)-4-oxoquinoline-3-carboxylic acid], the MIC (M. avium; M. avium N-357, Table 3) is reported as 0.39 µg/mL (≈ 0.991 µM), the MIC (M. avium; M. avium N-444, Table 3) is reported as 0.78 µg/mL (≈ 1.98 µM) and the MIC (M. avium; M. avium N-458, Table 3) is reported as 0.2 µg/mL (≈ 0.508 µM). The MIC (M. avium; M. avium N-472, Table 3) was 1.56 µg/mL (≈ 3.97 µM), the MIC (M. intracellulare; M. intracellulare N-338, Table 3) was 1.56 µg/mL (≈ 3.97 µM) and the MIC (M. intracellulare; Mycobacterium intracellulare, M. intracellulare N-313, Table 3, read-out: MIC) was 0.39 µg/mL (≈ 0.991 µM). The MIC (M. intracellulare; Mycobacterium intracellulare, M. intracellulare N-345, Table 3, read-out: MIC) was 3.13 µg/mL (≈ 7.96 µM), the MIC (M. intracellulare; Mycobacterium intracellulare, M. intracellulare N-294, Table 3, read-out: MIC) was 1.56 µg/mL (≈ 3.97 µM) and the “survival of mice after administration” value [1] was “all mice were survived”. The “Mortality (dead/ test)” value ([1]; 50 mg/kg) was 0/5, the acute toxicity [1] was “relatively weak” and the MIC ([2]; H37RV, M. tuberculosis H37Rv, Table 5) was 0.1 µg/mL (≈ 0.254 µM). For the same molecule, the MIC ([2]; M. tuberculosis Kurono, Table 5) was 0.05 µg/mL (≈ 0.127 µM), the MIC ([2]; M. tuberculosis No. 40, Table 5) was 0.05 µg/mL (≈ 0.127 µM) and the MIC ([2]; M. tuberculosis No. 41, Table 5) was 0.025 µg/mL (≈ 0.0636 µM). For the same molecule, the MIC ([2]; M. tuberculosis No. 43, Table 5) was 0.39 µg/mL (≈ 0.991 µM), the MIC ([2]; M. tuberculosis No. 68, Table 5) was 0.1 µg/mL (≈ 0.254 µM) and the “MNRC (%) mean ±S.E. 24 hours” value (reticulocytes (RC); 50 mg/kg) was 0.20 ± 0.04%. The “MNRC (%) mean ±S.E. 48 hours” value (reticulocytes (RC); 50 mg/kg) was 0.14 ± 0.04% and the micronucleus induction (reticulocytes (RC)) was “weak”.

`COc1c(N2C[C@@H](C)N[C@@H](C)C2)c(F)cc2c(=O)c(C(=O)O)cn([C@@H]3C[C@@H]3F)c12` [Compd. 16, 7-(3,5-cis-Dimethylpiperazin-1-yl)-6-fluoro-1-[2-(S)-fluoro-1-(R)-cyclopropyl]-1,4-dihydro-8-methoxy-4-oxoquinoline-3-carboxylic acid] showed an MIC (M. avium; M. avium N-357, Table 4 (series 2)) of 0.5 µg/mL (≈ 1.23 µM), an MIC (M. avium; M. avium N-444, Table 4 (series 2)) of 1 µg/mL (≈ 2.45 µM) and an MIC (M. avium; M. avium N-458, Table 4 (series 2)) of 0.5 µg/mL (≈ 1.23 µM). It also gave an MIC (M. avium; M. avium N-472, Table 4 (series 2)) of 4 µg/mL (≈ 9.82 µM), an MIC (M. intracellulare; Mycobacterium intracellulare, M. intracellulare N-294, Table 4 (series 2), read-out: MIC) of 1 µg/mL (≈ 2.45 µM) and an MIC (M. intracellulare; Mycobacterium intracellulare, M. intracellulare N-313, Table 4 (series 2), read-out: MIC) of 0.12 µg/mL (≈ 0.295 µM). For the same molecule, the MIC (M. intracellulare; Mycobacterium intracellulare, M. intracellulare N-338, Table 4 (series 2), read-out: MIC) was 0.5 µg/mL (≈ 1.23 µM), the MIC (M. intracellulare; Mycobacterium intracellulare, M. intracellulare N-345, Table 4 (series 2), read-out: MIC) was 0.5 µg/mL (≈ 1.23 µM) and the “survival of mice after administration” value [1] was “all mice were survived”. For the same molecule, the “Mortality (dead/ test)” value ([1]; 150 mg/kg) was 0/5, the acute toxicity [1] was “relatively weak” and the MIC ([2]; H37RV, M. tuberculosis H37Rv, Table 6 (series 2)) was 0.12 µg/mL (≈ 0.295 µM). The MIC ([2]; M. tuberculosis Kurono, Table 6 (series 2)) was 0.12 µg/mL (≈ 0.295 µM), the MIC ([2]; M. tuberculosis No. 40, Table 6 (series 2)) was 0.12 µg/mL (≈ 0.295 µM) and the MIC ([2]; M. tuberculosis No. 41, Table 6 (series 2)) was 0.03 µg/mL (≈ 0.0736 µM). The MIC ([2]; M. tuberculosis No. 43, Table 6 (series 2)) was 1 µg/mL (≈ 2.45 µM), the MIC ([2]; M. tuberculosis No. 68, Table 6 (series 2)) was 0.12 µg/mL (≈ 0.295 µM) and the “MNRC (%) mean ±S.E. 24 hours” value (reticulocytes (RC); 150 mg/kg) was 0.05 ± 0.03%. The “MNRC (%) mean ±S.E. 48 hours” value (reticulocytes (RC); 150 mg/kg) was 0.12 ± 0.02% and the micronucleus induction (reticulocytes (RC)) was “weak”.

Molecule `COc1c(N2CCNC(CF)C2)c(F)cc2c(=O)c(C(=O)O)cn([C@@H]3C[C@@H]3F)c12` (stereo partly drawn) [Compd. 19, 6-Fluoro-1-[(1R,2S)-2-fluorocyclopropyl]-7-(3-fluoromethylpiperazin-1-yl)-1,4-dihydro-8-methoxy-4-oxoquinoline-3-carboxylic acid] has a melting point of 153 to 156 °C.

With `COCC1CN(c2c(F)cc3c(=O)c(C(=O)O)cn([C@@H]4C[C@@H]4F)c3c2OC)CCN1` (stereo partly drawn) [Compd. 21, 6-Fluoro-1-[(1R,2S)-2-fluorocyclopropyl]-1,4-dihydro-8-methoxy-7-(3-methoxymethylpiperazin-1-yl)-4-oxoquinoline-3-carboxylic acid] the melting point was 92 to 95 °C.

With `COc1c(N2CCNC3(CC3)C2)c(F)cc2c(=O)c(C(=O)O)cn([C@@H]3C[C@@H]3F)c12` [Compd. 22, 7-{4,7-Diazaspiro[2.5]octan-7-yl}-6-fluoro-1-[(1R,2S)-2-fluorocyclopropyl]-1,4-dihydro-8-methoxy-4-oxoquinoline-3-carboxylic acid] the melting point was 164 to 167 °C (dec.).
